Source: patent US20250163379A1, “METHOD FOR DIFFERENTIATING HEMATOPOIETIC STEM/PROGENITOR CELLS INTO NK CELLS” (HEMACELL BIOTECHNOLOGY INC., priority 2022, published 2025)

Tests used:
[1] = system: hematopoietic stem/progenitor cells; assay: Flow cytometry analysis of induced NK cells for cytotoxic markers (CD16, CD314, CD335, CD336); assay type: cell-based; conditions: for efficiency of obtaining CD16+CD56+ NK cells: control group 5.45%, FIG. 2; for efficiency of obtaining CD314+ NK cells: control group 10.1%, FIG. 3; for efficiency of obtaining CD335+ NK cells: control group 12.4%, FIG. 4; for efficiency of obtaining CD336+ NK cells: control group 35.7%, FIG. 5
Method: (§1) The experiment was carried out according to the following steps: • (1) Inoculating hematopoietic stem/progenitor cells into an initial differentiation medium and culturing at 35-39° C. and 3-7%0CO2 for 5 days; • (2) Continuing culturing cells in NIK differentiation medium I for 3-5 days; • (3) Continuing culturing the cells in NK differentiation medium II; replacing half of the culture medium every 5 to 6 days for 22 to 28 days or until NK cells are obtained. • (4) Basal differentiation medium: DMEM high glucose medium, Ham's F-12Nutrient Mix, GlutaMAX™ supplement medium, heat-inactivated human AB serum, L-glutamic acid, 2-mercaptoethanol, sodium selenite, aminoethanol and L-ascorbic acid. • (5) Initial differentiation medium: basal differentiation medium, SCF (15-25 ng/mL); IL3 (3-7 ng/mL); IL7 (15-25 ng/mL); IL15 (8-12 ng/mL); Flt3-L (8-12 ng/mL); GABA pathway activator. • (6) NK differentiation medium I: basal differentiation medium; SCF (15-25 ng/mL); IL3 (3-7 ng/mL); IL7 (15-25 ng/mL); IL15 (8-12 ng/mL); Flt3-L (8-12 ng/mL). • (7) NK differentiation medium II: basal differentiation medium; SCF (15-25 ng/mL); IL15 (8-12 ng/mL); IL7 (15-25 ng/mL); Flt3-L (8-12 ng/mL).
Flow cytometry analysis of induced NK cells
(1) Collection of NK cells: The cells were centrifuged at 300 g for 5 min; the supernatant was discarded, an equal volume of FACS buffer was added to wash and resuspend the cells, and the cells were centrifuged; the above steps were repeated twice; the cells were centrifuged and the supernatant was discarded, and thereafter, 125 μL of FACS buffer was added to resuspend the cells.
(2) Cell staining: 2.5 μL of labeled antibody was added to the cell suspension (volume ratio of labeled antibody:cell=1:50), the system was mixed well, and allowed to react at room temperature in the dark for 30 min; after centrifugation, the supernatant was discarded; 1 mL of FACS buffer was added to wash and resuspend the cells, the cells were centrifuged, and the above steps were repeated twice; the cells were centrifuged and the supernatant was discarded, and thereafter 250 μL of FACS buffer was added to resuspend the cells, the system was transferred to a Falcon flow tube, and placed on ice; 0.25 μL of DAPI was added before loading, the system was mixed well for later loading and detection.
(3) Preparation of single-color compensation control: The microspheres were mixed evenly by inverting vigorously at least 10 times or pulse vortexing; to each EP tube, 1 drop of UltraCompe Beads was added, then 1 μL of fluorescent antibody conjugate was added, the system was well mixed by blowing-suction with a pipette, and incubated at room temperature in the dark for 30 min; 1 mL of FACS buffer was added to each EP tube, the system was centrifuged at 400 g for 5 min at room temperature; the supernatant was sucked out carefully without removing the beads, and then 250 μL of FACS buffer was added to each test tube; the sample was mixed evenly by flicking or pulse vortexing before analysis.
(4) Detection on the flow cytometer: Before detection, the stained cells were placed on ice to prevent cell aggregation; at least 10,000 cells were tested for each sample; unstained cells were analyzed on the flow cytometer, and appropriate FSC and side scatter SSC as well as the voltage of the fluorescence detector PMT were set. […]

[2] = system: hematopoietic stem/progenitor cells; assay: Inducing differentiation of hematopoietic stem/progenitor cells into NK cells (CD3-CD56+); assay type: cell-based; conditions: GABA pathway activator in initial differentiation medium; control group 75.6%; FIG. 1
Method: as §1
CD3 is a marker of T cells, CD56 is a marker of NK cells, and the characterization of NK cells is CD3-CD56+. […]

Row | SMILES | efficiency of obtaining CD16+CD56+ NK cells [1] [%] | efficiency of obtaining CD314+ NK cells [1] [%] | efficiency of obtaining CD335+ NK cells [1] [%] | efficiency of obtaining CD336+ NK cells [1] [%] | efficiency of obtaining NK cells (CD3-CD56+) [2] [%]
1 | NCCCC(=O)O [GABA, γ-aminobutyric acid] | 5.86 | 11.0 | 18.2 | 48.2 | 88.3
2 | NC/C=C/C(=O)O [TACA, trans-4-aminocrotonic acid] | 9.71 | 18.4 | 21.1 | 48.8 | 87.2
